Laboratory results as given in the supplement of paper PMC10307832.

Tests used:
Test in all cases: relative viability (nuclei count vs DMSO), 5 days (fraction); higher = more cells survive
[1] = compound: CC1(COc2ccc3c(c2)ncn3-c2ccc3cccc(N4CCC(N)CC4)c3n2)COC1 [Crenolanib] + Nc1ncn([C@H]2C[C@H](O)[C@@H](CO)O2)c(=O)n1 [Decitabine] (partner 2 µM)
Outline: (§1)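 Five library-drug doses in √10 steps were combined with a fixed anchor-drug dose, or a single drug was given alone, by pin tool to lung cancer cell lines in 1536-well plates the day after seeding. Nuclei were stained and counted after 5 days. Relative viability is the nuclei count in treated wells over that in vehicle wells, taken as the median of duplicate plates.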

[2] = compound: CC1(COc2ccc3c(c2)ncn3-c2ccc3cccc(N4CCC(N)CC4)c3n2)COC1 [Crenolanib] + N=C(N)NC(=N)NCCc1ccccc1 [Phenformin] (partner 250 µM)
Outline: as §1

[3] = compound: CC1(COc2ccc3c(c2)ncn3-c2ccc3cccc(N4CCC(N)CC4)c3n2)COC1 [Crenolanib] + CC(=O)Nc1cccc(-n2c(=O)n(C3CC3)c(=O)c3c(Nc4ccc(I)cc4F)n(C)c(=O)c(C)c32)c1 [Trametinib] (partner 0.02 µM)
Outline: as §1

[4] = compound: O=C1NC(=O)[C@@H](c2cn3c4c(cccc24)CCC3)[C@@H]1c1c[nH]c2ccccc12 [Tivantinib] + CC1(C)CCC(c2ccc(Cl)cc2)=C(CN2CCN(c3ccc(C(=O)NS(=O)(=O)c4ccc(N[C@H](CCN5CCOCC5)CSc5ccccc5)c(S(=O)(=O)C(F)(F)F)c4)cc3)CC2)C1 [Navitoclax] (partner 0.5 µM)
Outline: as §1

Cell Line	relative viability ([1]; first compound 0.01 µM)	relative viability ([1]; first compound 0.03162 µM)	relative viability ([1]; first compound 0.1 µM)	relative viability ([1]; first compound 0.3162 µM)	relative viability ([1]; first compound 1 µM)	relative viability ([2]; first compound 0.01 µM)	relative viability ([2]; first compound 0.03162 µM)	relative viability ([2]; first compound 0.1 µM)	relative viability ([2]; first compound 0.3162 µM)	relative viability ([2]; first compound 1 µM)	relative viability ([3]; first compound 0.01 µM)	relative viability ([3]; first compound 0.03162 µM)	relative viability ([3]; first compound 0.1 µM)	relative viability ([3]; first compound 0.3162 µM)	relative viability ([3]; first compound 1 µM)	relative viability ([4]; first compound 0.01 µM)	relative viability ([4]; first compound 0.03162 µM)	relative viability ([4]; first compound 0.1 µM)	relative viability ([4]; first compound 0.3162 µM)
NCI-H522	0.668	0.63	0.665	0.64	0.607	0.706	0.641	0.756	0.656	0.675	0.766	0.615	0.841	0.631	0.638	–	–	–	–
HCC-366	0.33	0.325	0.329	0.374	0.334	0.612	0.617	0.591	0.557	0.587	0.367	0.374	0.3	0.422	0.345	0.951	1.14	1.03	1.07
A-427	0.573	–	0.592	0.553	0.52	0.366	0.372	0.311	0.255	0.244	0.831	–	0.755	0.818	0.747	0.893	0.882	0.924	0.951
NCI-H23	0.288	0.359	0.347	0.353	0.321	0.887	0.855	0.753	0.841	0.669	0.441	0.412	0.425	0.387	0.408	0.987	1.01	0.759	0.753
NCI-H1755	0.678	0.74	0.743	0.743	0.697	0.666	0.642	0.61	0.613	0.574	0.754	0.707	0.734	0.885	0.75	1.02	0.954	0.934	1.03
EPLC-272H	0.455	0.391	0.339	0.391	0.358	0.356	0.331	0.224	0.375	0.382	0.307	0.299	0.283	0.326	0.277	1.12	1.27	1.05	1.01
PC-3 [JPC-3]	0.785	–	0.806	0.82	0.806	0.487	0.494	0.46	0.474	0.458	0.758	–	0.632	0.623	0.585	0.775	0.829	0.801	0.574
NCI-H1975	0.376	0.475	0.412	0.375	0.349	0.419	0.402	0.389	0.429	0.409	0.344	0.316	0.313	0.304	0.359	1.03	1.07	1.12	1.16
NCI-H1703	–	–	–	–	–	–	–	–	–	–	–	–	–	–	–	1.51	1.29	1.19	0.833
HCC-44	0.933	0.925	0.944	0.972	0.845	0.267	0.207	0.188	0.184	0.169	1.05	1.1	1.03	1.11	0.945	0.971	0.935	1.06	0.872
SK-MES-1	0.315	0.451	0.42	0.385	0.359	0.655	0.635	0.687	0.636	0.583	0.583	0.549	0.55	0.548	0.487	1.24	1.17	1.1	0.896
NCI-H727	0.872	0.851	0.877	0.997	0.904	0.636	0.544	0.497	0.565	0.599	0.437	0.387	0.359	0.382	0.447	0.412	0.432	0.311	–
RERF-LC-KJ	0.672	0.699	0.635	0.697	0.717	0.442	0.44	0.423	0.463	0.446	0.882	0.855	0.896	0.901	0.926	0.901	1.05	0.818	0.829
NCI-H1623	–	–	–	–	–	0.592	0.595	0.543	0.585	0.553	–	–	–	–	–	–	–	–	–
Calu-6	–	–	–	–	–	–	–	–	–	–	–	–	–	–	–	0.866	0.996	0.807	0.716
LCLC-103H	0.752	0.709	0.692	0.769	0.72	0.316	0.329	0.295	0.34	0.352	0.686	0.643	0.651	0.692	0.667	–	–	–	–
CAL-12T	–	–	–	–	–	0.533	0.575	0.545	0.598	0.538	0.466	0.345	0.372	0.347	0.294	1.2	1.3	1.16	1.03
